# Key:
# Type in all cases: cell-based
# [1] = target: T1, 5-hydroxytryptamine receptor 6 (Homo sapiens, UniProt P50406); assay: Displacement of [3H]LSD from human recombinant 5-HT6 receptor expressed in CHO-K1 cells incubated for 3 hrs by scintillation counting analysis
# D(2) dopamine receptor [2] = target: T2, D(2) dopamine receptor (Homo sapiens, UniProt P14416); assay: Displacement of [3H]raclopride from human recombinant dopamine D2 long receptor expressed in CHO-K1 cells at 1 uM incubated for 120 mins by scintillation counting analysis
# [3] = target: T1, 5-hydroxytryptamine receptor 6; assay: Displacement of [3H]LSD from human recombinant 5-HT6 receptor expressed in CHO-K1 cells at 1 uM incubated for 3 hrs by scintillation counting analysis
# D(3) dopamine receptor [4] = target: T3, D(3) dopamine receptor (Homo sapiens, UniProt P35462); assay: Displacement of [3H]raclopride from human recombinant dopamine D3 receptor expressed in CHO-K1 cells incubated for 120 mins by liquid scintillation counting analysis
# Histamine H3 receptor [5] = target: T4, Histamine H3 receptor (Homo sapiens, UniProt Q9Y5N1); assay: Displacement of N-alpha-[methyl-3H]methylhistamine dihydrochloride from human recombinant histamine H3 receptor expressed in CHO-K1 cells at 1 uM incubated for 30 mins by liquid scintillation counting analysis
# Homo sapiens = species on record: Homo sapiens; assay: Selectivity index, ratio of Ki for human recombinant dopamine D3 receptor expressed in CHO-K1 cells to Ki for dopamine D2 long receptor expressed in CHO-K1 cells
# D(3) dopamine receptor [6] = target: T3, D(3) dopamine receptor; assay: Displacement of [3H]raclopride from human recombinant dopamine D3 receptor expressed in CHO-K1 cells at 1 uM incubated for 120 mins by liquid scintillation counting analysis
# Histamine H3 receptor [7] = target: T4, Histamine H3 receptor; assay: Displacement of N-alpha-[methyl-3H]methylhistamine dihydrochloride from human recombinant histamine H3 receptor expressed in CHO-K1 cells incubated for 30 mins by liquid scintillation counting analysis
# D(2) dopamine receptor [8] = target: T2, D(2) dopamine receptor; assay: Displacement of [3H]raclopride from human recombinant dopamine D2 long receptor expressed in CHO-K1 cells incubated for 120 mins by scintillation counting analysis
# T3 sequence (P35462 whole entry): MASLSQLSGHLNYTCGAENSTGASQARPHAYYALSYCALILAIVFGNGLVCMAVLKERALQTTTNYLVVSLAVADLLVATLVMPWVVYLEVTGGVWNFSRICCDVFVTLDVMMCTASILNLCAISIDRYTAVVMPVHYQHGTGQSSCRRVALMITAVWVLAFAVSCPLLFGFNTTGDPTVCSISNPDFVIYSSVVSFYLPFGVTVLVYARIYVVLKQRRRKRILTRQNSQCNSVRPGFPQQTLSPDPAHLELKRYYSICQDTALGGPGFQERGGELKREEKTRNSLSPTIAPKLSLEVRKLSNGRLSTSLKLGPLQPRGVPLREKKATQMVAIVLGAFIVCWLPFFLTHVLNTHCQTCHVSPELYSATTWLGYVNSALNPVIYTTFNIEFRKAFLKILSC
# T4 sequence (Q9Y5N1 whole entry): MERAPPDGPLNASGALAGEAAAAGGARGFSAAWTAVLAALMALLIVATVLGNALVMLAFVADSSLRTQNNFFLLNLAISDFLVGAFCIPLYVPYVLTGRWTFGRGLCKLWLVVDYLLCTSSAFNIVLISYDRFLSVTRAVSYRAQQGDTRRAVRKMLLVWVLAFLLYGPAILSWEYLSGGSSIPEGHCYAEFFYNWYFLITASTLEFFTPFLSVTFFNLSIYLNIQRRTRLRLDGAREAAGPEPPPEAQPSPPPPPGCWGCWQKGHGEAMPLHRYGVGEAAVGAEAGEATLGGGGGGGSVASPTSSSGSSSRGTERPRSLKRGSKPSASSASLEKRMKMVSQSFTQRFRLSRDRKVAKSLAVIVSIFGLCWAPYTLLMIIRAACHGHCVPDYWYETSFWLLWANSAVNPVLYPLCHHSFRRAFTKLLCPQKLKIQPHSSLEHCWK
# T1 sequence (P50406 whole entry): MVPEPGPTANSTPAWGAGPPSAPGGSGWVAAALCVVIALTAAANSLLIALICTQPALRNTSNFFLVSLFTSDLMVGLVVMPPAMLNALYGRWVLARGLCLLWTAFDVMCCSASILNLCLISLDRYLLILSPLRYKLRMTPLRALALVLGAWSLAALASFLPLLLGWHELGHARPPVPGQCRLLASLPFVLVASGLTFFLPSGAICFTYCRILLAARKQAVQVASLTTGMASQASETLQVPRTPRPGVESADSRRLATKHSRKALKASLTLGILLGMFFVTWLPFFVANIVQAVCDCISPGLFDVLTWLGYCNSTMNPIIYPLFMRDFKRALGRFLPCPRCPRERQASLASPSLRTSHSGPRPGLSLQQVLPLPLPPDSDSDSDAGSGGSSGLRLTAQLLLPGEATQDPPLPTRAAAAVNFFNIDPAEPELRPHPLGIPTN
# T2 sequence (P14416 whole entry): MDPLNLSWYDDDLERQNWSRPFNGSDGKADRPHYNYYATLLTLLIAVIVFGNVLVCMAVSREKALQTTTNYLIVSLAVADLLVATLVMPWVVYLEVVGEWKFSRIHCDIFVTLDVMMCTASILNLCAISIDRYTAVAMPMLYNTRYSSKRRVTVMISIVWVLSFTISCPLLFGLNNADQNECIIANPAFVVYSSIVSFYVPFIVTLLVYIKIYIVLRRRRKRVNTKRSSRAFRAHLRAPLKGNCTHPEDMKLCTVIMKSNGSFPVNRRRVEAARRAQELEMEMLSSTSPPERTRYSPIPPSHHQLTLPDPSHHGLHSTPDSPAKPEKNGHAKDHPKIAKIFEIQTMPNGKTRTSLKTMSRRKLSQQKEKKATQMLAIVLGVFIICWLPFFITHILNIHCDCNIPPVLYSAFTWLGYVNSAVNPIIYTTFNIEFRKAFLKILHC
Ki [1] [nM],inhibition (D(2) dopamine receptor [2]) [%],inhibition [3] [%],Ki (D(3) dopamine receptor [4]) [nM],inhibition (Histamine H3 receptor [5]) [%],inhibition (D(3) dopamine receptor [6]) [%],Ki (Histamine H3 receptor [7]) [nM],Ki (D(2) dopamine receptor [8]) [nM],Compound,Ratio Ki (Homo sapiens)
440,18,84,108,35,85,,,CN1CCN(c2ccc3c(c2)CCN3S(=O)(=O)c2ccccc2)CC1,
175,13,74,,2,20,,,O=S(=O)(c1ccccc1)N1CCc2cc(C3CCNCC3)ccc21,
2.6,43,100,160,19,85,,,CN1CCN(c2cccc3c2CN(S(=O)(=O)c2ccccc2)C3)CC1,
,17,40,321,54,72,448,,CCN1CCC(c2ccc3c(c2)CCN3S(=O)(=O)c2ccccc2)CC1,
,25,-10,,28,24,,,O=S(=O)(c1ccccc1)N1Cc2ccc(C3CCN(C4CCC4)CC3)cc2C1,
45,35,87,,10,13,,,CN1CCC(c2cccc3c2CCN3S(=O)(=O)c2ccccc2)CC1,
21,40,92,212,4,55,,,CCCN1CCC(c2cccc3c2CN(S(=O)(=O)c2ccccc2)C3)CC1,
4.8,47,98,525,16,72,,1590,O=S(=O)(c1ccccc1)N1Cc2cccc(N3CCN(C4CCC4)CC3)c2C1,
125,80,82,5.7,16,99,,95,CCCN1CCN(c2ccc3c(c2)N(S(=O)(=O)c2ccccc2)CC3)CC1,< 10
25,34,93,121,3,75,,,CN1CCC(c2ccc3c(c2)N(S(=O)(=O)c2ccccc2)CC3)CC1,< 10
,11,29,,21,41,,,CN1CCN(c2ccc3c(c2)CN(S(=O)(=O)c2ccccc2)C3)CC1,
,29,,103,38,85,,,CCCN1CCN(c2ccc3c(c2)CN(S(=O)(=O)c2ccccc2)C3)CC1,
13,10,83,,-5,6,,,O=S(=O)(c1ccccc1)N1CCc2c(C3CCNCC3)cccc21,
8.2,67,96,173,17,77,,211,CN1CCN(c2cccc3c2CCN3S(=O)(=O)c2ccccc2)CC1,1.5
,18,4,,48,32,302,,CCN1CCC(c2ccc3c(c2)CN(S(=O)(=O)c2ccccc2)C3)CC1,
186,50,60,173,36,78,,411,O=S(=O)(c1ccccc1)N1CCc2ccc(N3CCN(C4CCC4)CC3)cc21,< 10
556,19,56,,41,34,,,CN1CCC(c2ccc3c(c2)CN(S(=O)(=O)c2ccccc2)C3)CC1,
1030,38,45,383,-5,56,,,CCCN1CCC(c2cccc3c2CCN3S(=O)(=O)c2ccccc2)CC1,

Ki [1] [nM],inhibition (D(2) dopamine receptor [2]) [%],inhibition [3] [%],Ki (D(3) dopamine receptor [4]) [nM],inhibition (Histamine H3 receptor [5]) [%],inhibition (D(3) dopamine receptor [6]) [%],Ki (Histamine H3 receptor [7]) [nM],Ki (D(2) dopamine receptor [8]) [nM],Compound,Ratio Ki (Homo sapiens)
23,39,95,95,11,86,,,CCN1CCC(c2ccc3c(c2)N(S(=O)(=O)c2ccccc2)CC3)CC1,< 10
,35,39,227,22,79,,,CCCN1CCC(c2ccc3c(c2)CCN3S(=O)(=O)c2ccccc2)CC1,
74,87,78,17,27,97,,42,CCCN1CCN(c2cccc3c2CCN3S(=O)(=O)c2ccccc2)CC1,1.5
527,29,62,362,1,59,,,O=S(=O)(c1ccccc1)N1CCc2ccc(C3CCN(C4CCC4)CC3)cc21,< 10
71,59,81,26,14,98,,324,CCCN1CCC(c2ccc3c(c2)N(S(=O)(=O)c2ccccc2)CC3)CC1,< 10
4.6,64,98,27,12,97,,180,CCCN1CCN(c2cccc3c2CN(S(=O)(=O)c2ccccc2)C3)CC1,
254,9,54,,3,3,,,O=S(=O)(c1ccccc1)N1Cc2ccc(C3CCNCC3)cc2C1,
,22,-9,1670,11,48,,,O=S(=O)(c1ccccc1)N1CCc2cc(C3CCN(C4CCC4)CC3)ccc21,
42,49,91,,13,-5,,1830,O=S(=O)(c1ccccc1)N1Cc2cccc(C3CCN(C4CCC4)CC3)c2C1,
2.7,27,91,517,-6,49,,,O=S(=O)(c1ccccc1)N1CCc2ccc(C3CCNCC3)cc21,< 10
,59,38,24,39,98,,245,CCCN1CCN(c2ccc3c(c2)CCN3S(=O)(=O)c2ccccc2)CC1,
,16,26,712,27,48,,,CCCN1CCC(c2ccc3c(c2)CN(S(=O)(=O)c2ccccc2)C3)CC1,
60,77,86,16,20,95,,136,CCN1CCN(c2ccc3c(c2)N(S(=O)(=O)c2ccccc2)CC3)CC1,< 10
2.3,27,98,562,3,53,,,CCN1CCC(c2cccc3c2CN(S(=O)(=O)c2ccccc2)C3)CC1,
25,52,92,68,-7,72,,458,CN1CCN(c2ccc3c(c2)N(S(=O)(=O)c2ccccc2)CC3)CC1,< 10
,1,1,,74,34,395,,O=S(=O)(c1ccccc1)N1Cc2ccc(N3CCN(C4CCC4)CC3)cc2C1,
,24,28,208,36,68,,,O=S(=O)(c1ccccc1)N1CCc2cc(N3CCN(C4CCC4)CC3)ccc21,

Compound,Ki [1] [nM],inhibition (D(2) dopamine receptor [2]) [%],inhibition [3] [%],Ki (D(3) dopamine receptor [4]) [nM],inhibition (Histamine H3 receptor [5]) [%],inhibition (D(3) dopamine receptor [6]) [%],Ki (Histamine H3 receptor [7]) [nM],Ki (D(2) dopamine receptor [8]) [nM],Ratio Ki (Homo sapiens)
O=S(=O)(c1ccccc1)N1CCc2ccc(N3CCNCC3)cc21,12,32,95,330,4,58,,,< 10
CCN1CCN(c2cccc3c2CN(S(=O)(=O)c2ccccc2)C3)CC1,28,55,98,73,17,92,,310,
O=S(=O)(c1ccccc1)N1CCc2c(N3CCNCC3)cccc21,118,22,97,,3,40,,,
O=S(=O)(c1ccccc1)N1CCc2cc(N3CCNCC3)ccc21,20,18,90,133,4,75,,,
O=S(=O)(c1ccccc1)N1Cc2cccc(N3CCNCC3)c2C1,1.9,29,98,505,11,61,,,
O=S(=O)(c1ccccc1)N1Cc2ccc(N3CCNCC3)cc2C1,289,14,46,,7,37,,,
